Source: patent US20260015358A1, “BICYCLIC DERIVATIVES, COMPOSITIONS AND USES THEREOF” (Danatlas Pharmaceuticals Co., Ltd., priority 2023, published 2026)

Assays:
[1] = target: T1, WRN [UniPro: Q14191 (WRN_HUMAN), N500-C946] (Homo sapiens (Human), UniProt Q14191); test: WRN unwinding assay (FORKF DNA, fluorescence); assay type: biochemical; conditions: Table 14
[2] = target: T1, WRN [UniPro: Q14191 (WRN_HUMAN), N500-C946]; test: WRN ATPase assay (ADP-Glo); assay type: biochemical; conditions: WRN enzymatic activity assay

T1 sequence (Q14191 500-946): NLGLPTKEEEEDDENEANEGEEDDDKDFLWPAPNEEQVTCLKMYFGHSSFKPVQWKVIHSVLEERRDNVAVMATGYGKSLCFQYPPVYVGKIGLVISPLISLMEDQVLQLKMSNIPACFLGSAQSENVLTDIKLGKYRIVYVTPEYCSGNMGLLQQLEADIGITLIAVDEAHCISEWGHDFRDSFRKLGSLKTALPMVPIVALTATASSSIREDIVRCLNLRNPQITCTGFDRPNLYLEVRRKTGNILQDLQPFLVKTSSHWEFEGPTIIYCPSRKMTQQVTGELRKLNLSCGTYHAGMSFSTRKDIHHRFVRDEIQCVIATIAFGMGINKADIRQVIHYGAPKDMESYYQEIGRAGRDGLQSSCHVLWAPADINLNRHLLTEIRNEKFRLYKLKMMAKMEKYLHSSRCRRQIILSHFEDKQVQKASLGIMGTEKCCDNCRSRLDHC

SMILES | IC50 [1] [nM] | IC50 [2] [nM]
CCc1c(N2CCN(C(=O)CNC(=O)[C@H]3CCCO3)CC2)c(=O)n2nc(C3=CCOCC3)nc2n1CC(=O)Nc1ccc(C(F)(F)F)cc1Cl [Example 321, (R)—N-(2-(4-(4-(2-((2-Chloro-4-(trifluoromethyl)phenyl)amino)-2-oxoethyl)-2-(3,6-dihydro-2H-pyran-4-yl)-5-ethyl-7-oxo-4,7-dihydro-[1,2,4]triazolo[1,5-a]pyrimidin-6-yl)piperazin-1-yl)-2-oxoethyl)tetrahydrofuran-2-carboxamide] | < 100 | 100 to 1000
CCc1c(N2CCN(C(=O)CNC(=O)[C@@H]3CCCO3)CC2)c(=O)n2nc(C3=CCOCC3)nc2n1CC(=O)Nc1ccc(C(F)(F)F)cc1Cl [Example 322, (S)—N-(2-(4-(4-(2-((2-Chloro-4-(trifluoromethyl)phenyl)amino)-2-oxoethyl)-2-(3,6-dihydro-2H-pyran-4-yl)-5-ethyl-7-oxo-4,7-dihydro-[1,2,4]triazolo[1,5-a]pyrimidin-6-yl)piperazin-1-yl)-2-oxoethyl)tetrahydrofuran-2-carboxamide] | < 100 | < 100
CCc1c(N2CCN(C(=O)CN(C)C(C)=O)CC2)c(=O)n2nc(C3=CCOCC3)nc2n1CC(=O)Nc1ccc(C(F)(F)F)cc1Cl [Example 323, 2-(6-(4-(N-Acetyl-N-methylglycyl)piperazin-1-yl)-2-(3,6-dihydro-2H-pyran-4-yl)-5-ethyl-7-oxo-[1,2,4]triazolo[1,5-a]pyrimidin-4(7H)-yl)-N-(2-chloro-4-(trifluoromethyl)phenyl)acetamide] | 100 to 1000 | 100 to 1000
CCc1c(N2CCN(C(=O)C(=O)Nc3cc(C)no3)CC2)c(=O)n2nc(C3=CCOCC3)nc2n1CC(=O)Nc1ccc(C(F)(F)F)cc1F [Example 324, 2-(4-(2-(3,6-Dihydro-2H-pyran-4-yl)-5-ethyl-4-(2-((2-fluoro-4-(trifluoromethyl)phenyl)amino)-2-oxoethyl)-7-oxo-4,7-dihydro-[1,2,4]triazolo[1,5-a]pyrimidin-6-yl)piperazin-1-yl)-N-(3-methylisoxazol-5-yl)-2-oxoacetamide] | < 100 | < 100
CCc1c(N2CCN(C(=O)C(=O)Nc3cc(C)ns3)CC2)c(=O)n2nc(C3=CCOCC3)nc2n1CC(=O)Nc1ccc(C(F)(F)F)cc1F [Example 325, 2-(4-(2-(3,6-Dihydro-2H-pyran-4-yl)-5-ethyl-4-(2-((2-fluoro-4-(trifluoromethyl)phenyl)amino)-2-oxoethyl)-7-oxo-4,7-dihydro-[1,2,4]triazolo[1,5-a]pyrimidin-6-yl)piperazin-1-yl)-N-(3-methylisothiazol-5-yl)-2-oxoacetamide] | < 100 | < 100
CCc1c(N2CCN(C(=O)C(=O)N(C)C)CC2)c(=O)n2nc(C3=CCOCC3)nc2n1CC(=O)Nc1ccc(C(F)(F)F)cc1Cl [Example 326, 2-(4-(4-(2-((2-Chloro-4-(trifluoromethyl)phenyl)amino)-2-oxoethyl)-2-(3,6-dihydro-2H-pyran-4-yl)-5-ethyl-7-oxo-4,7-dihydro-[1,2,4]triazolo[1,5-a]pyrimidin-6-yl)piperazin-1-yl)-N,N-dimethyl-2-oxoacetamide] | < 100 | 100 to 1000
CCc1c(N2CCN(C(=O)C(=O)Nc3ccccc3)CC2)c(=O)n2nc(C3=CCOCC3)nc2n1CC(=O)Nc1ccc(C(F)(F)F)cc1Cl [Example 327, 2-(4-(4-(2-((2-Chloro-4-(trifluoromethyl)phenyl)amino)-2-oxoethyl)-2-(3,6-dihydro-2H-pyran-4-yl)-5-ethyl-7-oxo-4,7-dihydro-[1,2,4]triazolo[1,5-a]pyrimidin-6-yl)piperazin-1-yl)-2-oxo-N-phenylacetamide] | 100 to 1000 | 100 to 1000
CCc1c(N2CCN(C(=O)C(=O)NC)CC2)c(=O)n2nc(C3=CCOCC3)nc2n1CC(=O)Nc1ccc(C(F)(F)F)cc1Cl [Example 329, 2-(4-(4-(2-((2-Chloro-4-(trifluoromethyl)phenyl)amino)-2-oxoethyl)-2-(3,6-dihydro-2H-pyran-4-yl)-5-ethyl-7-oxo-4,7-dihydro-[1,2,4]triazolo[1,5-a]pyrimidin-6-yl)piperazin-1-yl)-N-methyl-2-oxoacetamide] | 100 to 1000 | 100 to 1000
CCc1c(N2CCN(C(=O)C(=O)NOC)CC2)c(=O)n2nc(C3=CCOCC3)nc2n1CC(=O)Nc1ccc(C(F)(F)F)cc1Cl [Example 330, 2-(4-(4-(2-((2-Chloro-4-(trifluoromethyl)phenyl)amino)-2-oxoethyl)-2-(3,6-dihydro-2H-pyran-4-yl)-5-ethyl-7-oxo-4,7-dihydro-[1,2,4]triazolo[1,5-a]pyrimidin-6-yl)piperazin-1-yl)-N-methoxy-2-oxoacetamide] | < 100 | < 100
CCc1c(N2CCN(C(=O)C(=O)Nc3cc(C)[nH]n3)CC2)c(=O)n2nc(C3=CCOCC3)nc2n1CC(=O)Nc1ccc(C(F)(F)F)cc1Cl [Example 331, 2-(4-(4-(2-((2-Chloro-4-(trifluoromethyl)phenyl)amino)-2-oxoethyl)-2-(3,6-dihydro-2H-pyran-4-yl)-5-ethyl-7-oxo-4,7-dihydro-[1,2,4]triazolo[1,5-a]pyrimidin-6-yl)piperazin-1-yl)-N-(5-methyl-1H-pyrazol-3-yl)-2-oxoacetamide] | < 100 | < 100
CCc1c(N2CCN(C(=O)C(=O)Nc3nccs3)CC2)c(=O)n2nc(C3=CCOCC3)nc2n1CC(=O)Nc1ccc(C(F)(F)F)cc1Cl [Example 332, 2-(4-(4-(2-((2-Chloro-4-(trifluoromethyl)phenyl)amino)-2-oxoethyl)-2-(3,6-dihydro-2H-pyran-4-yl)-5-ethyl-7-oxo-4,7-dihydro-[1,2,4]triazolo[1,5-a]pyrimidin-6-yl)piperazin-1-yl)-2-oxo-N-(thiazol-2-yl)acetamide] | < 100 | < 100
CCc1c(N2CCN(C(=O)C(=O)Nc3ccn[nH]3)CC2)c(=O)n2nc(C3=CCOCC3)nc2n1CC(=O)Nc1ccc(C(F)(F)F)cc1Cl [Example 333, 2-(4-(4-(2-((2-Chloro-4-(trifluoromethyl)phenyl)amino)-2-oxoethyl)-2-(3,6-dihydro-2H-pyran-4-yl)-5-ethyl-7-oxo-4,7-dihydro-[1,2,4]triazolo[1,5-a]pyrimidin-6-yl)piperazin-1-yl)-2-oxo-N-(1H-pyrazol-5-yl)acetamide] | < 100 | < 100
CCc1c(N2CCN(C(=O)C(=O)Nc3cncs3)CC2)c(=O)n2nc(C3=CCOCC3)nc2n1CC(=O)Nc1ccc(C(F)(F)F)cc1Cl [Example 334, 2-(4-(4-(2-((2-Chloro-4-(trifluoromethyl)phenyl)amino)-2-oxoethyl)-2-(3,6-dihydro-2H-pyran-4-yl)-5-ethyl-7-oxo-4,7-dihydro-[1,2,4]triazolo[1,5-a]pyrimidin-6-yl)piperazin-1-yl)-2-oxo-N-(thiazol-5-yl)acetamide] | < 100 | < 100
CCc1c(N2CCN(C(=O)C(=O)Nc3cscn3)CC2)c(=O)n2nc(C3=CCOCC3)nc2n1CC(=O)Nc1ccc(C(F)(F)F)cc1Cl [Example 335, 2-(4-(4-(2-((2-Chloro-4-(trifluoromethyl)phenyl)amino)-2-oxoethyl)-2-(3,6-dihydro-2H-pyran-4-yl)-5-ethyl-7-oxo-4,7-dihydro-[1,2,4]triazolo[1,5-a]pyrimidin-6-yl)piperazin-1-yl)-2-oxo-N-(thiazol-4-yl)acetamide] | < 100 | 100 to 1000
CCNC(=O)C(=O)N1CCN(c2c(CC)n(CC(=O)Nc3ccc(C(F)(F)F)cc3Cl)c3nc(C4=CCOCC4)nn3c2=O)CC1 [Example 336, 2-(4-(4-(2-((2-Chloro-4-(trifluoromethyl)phenyl)amino)-2-oxoethyl)-2-(3,6-dihydro-2H-pyran-4-yl)-5-ethyl-7-oxo-4,7-dihydro-[1,2,4]triazolo[1,5-a]pyrimidin-6-yl)piperazin-1-yl)-N-ethyl-2-oxoacetamide] | 100 to 1000 | 100 to 1000
CCc1c(N2CCN(C(=O)C(=O)NOCc3ccccc3)CC2)c(=O)n2nc(C3=CCOCC3)nc2n1CC(=O)Nc1ccc(C(F)(F)F)cc1Cl [Example 337, N-(Benzyloxy)-2-(4-(4-(2-((2-chloro-4-(trifluoromethyl)phenyl)amino)-2-oxoethyl)-2-(3,6-dihydro-2H-pyran-4-yl)-5-ethyl-7-oxo-4,7-dihydro-[1,2,4]triazolo[1,5-a]pyrimidin-6-yl)piperazin-1-yl)-2-oxoacetamide] | < 100 | < 100
CCc1c(N2CCN(C(=O)CNC(=O)CC3CCCO3)CC2)c(=O)n2nc(C3=CCOCC3)nc2n1CC(=O)Nc1ccc(C(F)(F)F)cc1Cl (centres unmarked) [Example 338, N-(2-Chloro-4-(trifluoromethyl)phenyl)-2-(2-(3,6-dihydro-2H-pyran-4-yl)-5-ethyl-7-oxo-6-(4-((2-(tetrahydrofuran-2-yl)acetyl)glycyl)piperazin-1-yl)-[1,2,4]triazolo[1,5-a]pyrimidin-4(7H)-yl)acetamide] | < 100 | < 100
CCc1c(N2CCN(C(=O)C(=O)Nc3ccncn3)CC2)c(=O)n2nc(C3=CCOCC3)nc2n1CC(=O)Nc1ccc(C(F)(F)F)cc1F [Example 340, 2-(4-(2-(3,6-Dihydro-2H-pyran-4-yl)-5-ethyl-4-(2-((2-fluoro-4-(trifluoromethyl)phenyl)amino)-2-oxoethyl)-7-oxo-4,7-dihydro-[1,2,4]triazolo[1,5-a]pyrimidin-6-yl)piperazin-1-yl)-2-oxo-N-(pyrimidin-4-yl)acetamide] | 100 to 1000 | 100 to 1000
CCc1c(N2CCN(C(=O)C(=O)Nc3ccno3)CC2)c(=O)n2nc(C3=CCOCC3)nc2n1CC(=O)Nc1ccc(C(F)(F)F)cc1F [Example 341, 2-(4-(2-(3,6-Dihydro-2H-pyran-4-yl)-5-ethyl-4-(2-((2-fluoro-4-(trifluoromethyl)phenyl)amino)-2-oxoethyl)-7-oxo-4,7-dihydro-[1,2,4]triazolo[1,5-a]pyrimidin-6-yl)piperazin-1-yl)-N-(isoxazol-5-yl)-2-oxoacetamide] | < 100 | < 100
